Data: a melting point compilation (Tetko et al.; mined from patent text by program, amines drawn as free bases though some values may be those of a salt)

Row | Structure (SMILES) | melting point [°C]
1 | CC(=O)c1ccc(Nc2c(C(=O)NOCCO)ccc(F)c2F)c(Cl)c1 | 162
2 | CCOC(=O)CNc1c(Br)cc(Br)cc1Br | 81 to 82
3 | CCCCC(=O)c1ccc(OCCCC(=O)O)c(Cl)c1Cl | 92 to 94
4 | CCOC(=O)Oc1cc2occ(C(=O)Cl)c(=O)c2cc1OC(=O)OCC | 89 to 92
5 | OC(CCN1CCN(c2ccc(F)cc2)CC1)COc1ccccc1 (configuration not stated) | 97 to 99
6 | Nc1cccc(C(CC2CCCC2)C(=O)Nc2nccs2)c1 (configuration not stated) | 158 to 160
7 | CC(=O)c1c[nH]c2cc(-c3ccncc3)ccc2c1=O | > 300
8 | CCc1nn2ccc3oc(C)cc3c2c1CO | 127 to 129
9 | CC1(C)C(C(=O)Nc2ccccc2)C1(C)C | 149
10 | C[C@@H](NC(=O)c1nc(-c2ccc(Cl)cc2)no1)[C@](O)(Cn1cncn1)c1ccc(F)cc1F | 170 to 172
11 | CNC(=O)OCc1nc(C(C)C)c(Sc2cc(Cl)cc(Cl)c2)n1C | 112 to 113
12 | CC(CC(F)(F)C(F)(F)C(F)(F)C(F)(F)C(F)(F)C(F)(F)CC(C)C(=O)O)C(=O)O (configuration not stated) | 150 to 151
13 | COc1ccc2nc3ccc(C(=O)OCOC(=O)C(C)(C)C)cn3c(=O)c2c1 | 129 to 131
14 | CS(=O)(=O)c1ccc(-c2cnn(CC(F)(F)F)c(=O)c2-c2ccc(S(C)(=O)=O)cc2)cc1 | 212 to 213
15 | O=C(O)C(CCCN1C(=O)c2ccccc2C1=O)NS(=O)(=O)c1ccc(-c2ccc(Cl)cc2)cc1 (configuration not stated) | 179 to 181
16 | Cc1ccc(CC2(O)CCN(CC(=O)Nc3ccc(O[Si](C)(C)C(C)(C)C)cc3)CC2)cc1 | 136 to 138
17 | O=C1NC(=O)C(=Cc2ccc(OCCN3C(=O)SC(c4ccccc4)C3=O)cc2)S1 (configuration not stated) | 120
18 | Cc1nc2cc(F)ccc2c(=O)o1 | 159 to 160
19 | COC(=O)c1cc(NC(=O)OC(C)(C)C)c([N+](=O)[O-])cc1I | 126
20 | CCCc1nc2c(N)nc3cc(OCc4cccc([N+](=O)[O-])c4)ccc3c2n1CC(C)C | 175 to 176
21 | O=C(O)CCCCCCC=C(c1ccccc1)c1ccccc1 | 77.5 to 78.5
22 | COC(=O)c1cncs1 | 68
23 | O=C(Cc1cccc2ccccc12)NC1CCC2(O)C3Cc4ccc(O)c5c4C2(CCN3CC2CC2)C1O5 (configuration not stated) | 213 to 215

Row | Structure (SMILES) | melting point [°C]
24 | O=C(O)CN1CCN2C(=O)N(c3cc(Cl)cc(Cl)c3)C(=O)C2(Cc2ccc(Br)cc2)C1 (configuration not stated) | 236
25 | CC(C)[C@@H]1NC(=O)OC1(c1ccccc1)c1ccccc1 | 250 to 251
26 | Cc1cnc(NC(=O)c2cc(Oc3cnc(C(=O)N(C)C)cn3)cc(O[C@@H](C)COC(F)F)c2)cn1 | 75
27 | Cc1cc(CC(=O)c2ccc(F)cc2)on1 | 92 to 93
28 | CN(C)Cc1ccc(-c2nc(C(=O)Nc3nccs3)c(-c3ccc(Cl)cc3)[nH]2)cc1 | 143 to 145
29 | CC(C)(C)OC(=O)C(=O)C=Cc1cccnc1 | 51 to 52
30 | COC(=O)C(C)Oc1noc2cc(Cl)c([N+](=O)[O-])cc12 (configuration not stated) | 98 to 101
31 | Oc1ccc2c(c1O)C(Cc1ccnc3ccccc13)c1ccccc1-2 (configuration not stated) | 244 to 246
32 | CCN(CCNC(=O)c1n[nH]cc1NC(=O)c1cccc(C)n1)c1cccc(C)c1 | 203 to 205
33 | NC(=O)C1CCCc2c(C(=O)c3ccccc3)cccc21 (configuration not stated) | 146 to 148
34 | O=C(c1cc(I)c[nH]1)C(Cl)(Cl)Cl | 140
35 | CCCc1c(OCCCOc2ccc(C(=O)O)cc2Cl)ccc(C(C)=O)c1O | 171 to 172
36 | CC(C)=NNC(=O)NCCCN(C)CCCNC(=O)NN=C(C)C | 113 to 114
37 | Cc1c(-c2ccc(O)cc2)n(Cc2ccc(OCCN3CCCCC3)cc2)c2ccc(O)cc12 | 214 to 217
38 | COc1ccc(C2CCC(=O)Nc3ccccc3C2=O)cc1 (configuration not stated) | 244 to 245
39 | CC(C)(C)OC(=O)C(C)(C)N1COC(CCl)=C(c2ccccc2)C1=O | 128 to 129
40 | Cc1noc(-c2ncn3c2[C@@H]2CCN2C(=O)c2c(Cl)cccc2-3)n1 | 239 to 240
41 | Cc1ccc(Cn2ccnc2)cc1 | 51 to 53
42 | CCCCCCCCCNC1=CC(=O)c2c(OC)ccc(OC)c2C1=O | 85 to 86
43 | CCCCCCCCc1sc(NC(=O)c2cc3ccccc3n2CCC(=O)OCC)nc1-c1cc(OC)c(Cl)cc1OC | 59 to 61
44 | O=[N+]([O-])c1ccc2c(c1)S(=O)(=O)NCN2CC(F)(F)F | 191 to 193
45 | O=C(N[C@H](Cc1ccc(C(F)(F)F)cc1)[C@@H](O)c1ccccc1)c1ccc(F)c2ccccc12 (racemic) | 217 to 218
46 | CCOC(=O)C1=C(N)NC(N)=C(C(=O)OCC)C1c1cccc([N+](=O)[O-])c1 | 175 to 176

Row | Structure (SMILES) | melting point [°C]
47 | CC(C)N(CCSc1ccc(F)cc1)C(=O)Oc1ccccc1 | 53 to 58
48 | OCc1cc(Cl)c(Cl)cc1CO | 128 to 136
49 | CCN1C(=O)C(=CC=C2C=C3N(C)c4ccccc4N3CC2)SC1=S | 275
50 | CC(=O)NCC1CN(c2ccc(N3CCN(c4ccc([N+](=O)[O-])s4)CC3)c(F)c2)C(=O)O1 (configuration not stated) | 171 to 174
51 | NC(=O)N(O)C[C@@H]1C[C@H]1c1cccc(Oc2ccncc2)c1 (relative stereo) | 130 to 132
52 | Nc1cccc(Cn2c(-c3ccc(C4=CC=CNC4)cc3)ccc2-c2ccccc2Cl)n1 | 163 to 166
53 | CSc1c[nH]c2ncnc(Cl)c12 | 166 to 167
54 | COC(=O)Oc1ccc(C(=O)CBr)c(OC(=O)OC)c1 | 73 to 74
55 | Cc1ccc2nc(-c3ccccc3C#N)ncc2c1 | 174 to 176
56 | COc1cccc(CC(=O)Nc2ccc3sc(C)nc3c2Cl)c1 | 147 to 148
57 | CCOC(=O)CC(NC(=O)CNC(=O)c1csc(N=C2NCCN2)n1)c1cccnc1 (racemic) | 198 to 199
58 | CCCCCCCCCCC(C)OS(=O)(=O)NC(=O)Nc1c(C(C)C)cccc1C(C)C (configuration not stated) | 110 to 112
59 | C/C(=C(\C#N)C(N)=S)N1CCCN(c2ccc(Br)cc2)CC1 | 152 to 155
60 | COC(=O)c1cc(Cl)ccc1OCc1ccccc1 | 54.5 to 55
61 | CC(O)c1ccc2cc(OCc3ccccc3)ccc2c1 (configuration not stated) | 97 to 98
62 | O=c1[nH]c2c([nH]1)-c1ccncc1CC2 | > 310
63 | COc1cccc(C2(C(N)=O)CCCCC2)c1 | 120 to 122
64 | CCCn1nc2c(N)nc3ccccc3c2c1CC(C)(C)O | 188 to 190
65 | CN(CC[C@H]1CC[C@H](C(=O)O)CC1)c1nccc(C(F)(F)F)n1 | 110 to 112
66 | CN(C)Cc1ccccc1C1(c2ccc(Cl)cc2)OC(=O)c2ccccc21 (configuration not stated) | 138 to 140
67 | Cn1c(C(F)(F)F)cc(=O)n(-c2cc(Oc3ccccc3OCC(=O)OC(C)(C)C)c(Cl)cc2F)c1=O | 55.6

More lines, now with the values ahead:

Row | melting point [°C] | Structure (SMILES)
68 | 123 to 124 | COC(=O)COc1cc(C(C)=O)c(O)c2ccccc12
69 | 305 to 306 | O=C(O)Cn1c(=O)c(=O)[nH]c2ccc([N+](=O)[O-])cc21
70 | 164 | O=C1NC(=O)C(=Cc2ccc(OC[C@@H]3CCCN3c3ccccn3)cc2)S1
71 | > 300 | O=C(O)Cn1c(=O)c(=O)[nH]c2cc(Br)c(Br)cc21
72 | 96 | CCCC1CCC(C2Cc3c4c(c(F)c(F)c3O2)OCCC4)CC1 (configuration not stated)
73 | 78 to 82 | O=C1N(CC2CCCO2)c2cccc(Cl)c2C12COc1cc3c(cc12)CCO3 (configuration not stated)
74 | 48 to 51 | O=P1(c2cccc(C(F)(F)F)c2)c2ccccc2CN1c1ccccc1 (configuration not stated)
75 | 60 to 63 | Cc1cn(CCC(=O)N(C)C)nc1-c1ccccc1
76 | 166 | COC(=O)C1CC(O)CN1C(=O)c1cc2c(cc1[N+](=O)[O-])OCO2 (configuration not stated)
77 | 236 to 238 | O=C(Cc1ccccc1)NCc1cccc2c1CN(C1CCC(=O)NC1=O)C2=O (configuration not stated)
78 | 328 | COc1ccc(Cl)c2c1[nH]c1c(C(=O)O)cccc12
79 | 93 to 94.5 | CCN(c1ccc(F)cc1[N+](=O)[O-])S(=O)(=O)c1ccc(C)cc1
80 | 102 | CCCCc1c(C(=O)c2ccc(OC)cc2)n(C)c2ccc([N+](=O)[O-])cc12
81 | 140 to 141 | C=Cc1ccc(OC)c(OC)c1[N+](=O)[O-]
82 | 55 to 57 | CCCOC(=Nc1sc(Cl)cc1C#N)OCCC
83 | 124 to 126 | CCCc1nn(C)c2c(=O)n(CCCNc3ccc(OC(C)(C)C(=O)O)cc3)c(CC)nc12
84 | 193 to 195 | CCS(=O)(=O)c1ccc(N)cc1S(=O)(=O)NC(C)(C)C
85 | 154 to 159 | CCCn1nc(C2CC2)c(C(=O)OCC)c1Cc1ccc(-c2ccccc2-c2nnn(C(c3ccccc3)(c3ccccc3)c3ccccc3)n2)cc1

Row | melting point [°C] | Structure (SMILES)
86 | 215 | C#Cc1cc2cccnc2c(-c2cccc([N+](=O)[O-])c2)n1
87 | 140 to 141 | COc1ccc(-c2c(C)c3ccc(OC(C)=O)c(O)c3oc2=O)c(OC)c1
88 | 117 to 118 | COc1cccc2c(=O)n3c(cc12)SCCC3
89 | 103 to 104 | CCn1c(=O)c2c(C)onc2n(C)c1=O
90 | 160 to 161 | CN1C(=O)C(=O)c2cc(S(=O)(=O)N3CCC[C@H]3COc3ccccc3)ccc21
91 | 225 to 226 | CCCn1cc2c(n1)-c1c(nc3ccccc3c1N)CC2
92 | 155 | CS(=O)(=O)c1ccc2c(c1)C(=O)CC2
93 | 216 to 218 | CSc1ccc2[nH]c(=O)oc(=O)c2c1
94 | 114 to 115 | CCOC(=O)c1cccc(-c2nc(-c3ccc(C)c(C)c3)cs2)c1
95 | 218 to 220 | CC1(C)Oc2ccc(C#N)cc2[C@@H](NC2=C(CO)C(=O)CC2)[C@@H]1O (relative stereo)
96 | 249 to 251 | Nc1nc2sc(CCC3CCCCC3)nn2c(=O)c1[N+](=O)[O-]
97 | 181 to 183 | O=C(Cc1ccccc1)NC1C(=O)N2CC(C(=O)OCc3ccc([N+](=O)[O-])cc3)SC12 (configuration not stated)
98 | 90 to 93 | Cc1ccc(NC(=S)NCCCO)c(C)c1
99 | 205 to 206 | Nc1cc2c(cc1Oc1ccccc1)C(=O)OC2
100 | 176 to 178 | COc1ccc(-c2nc(N3CCCC3)c3c(C)c(C#N)sc3n2)cc1
101 | 172 to 173 | O=C(NCCCN1CCN(c2ncccn2)CC1)NC12CC3CC(CC(C3)C1)C2
102 | 105 to 108 | CCOC(=O)c1ccc(CNC(=O)CI)cc1O
